Experimental data reported in publication PMC11249646, “Small-Molecule Disruptors of the Interaction between Calcium- and Integrin-Binding Protein 1 and Integrin αIIbβ3 as Novel Antiplatelet Agents” (ACS Pharmacology & Translational Science, 2024).
Like-named read-outs stand apart in the source and are kept apart here.

Assays:
Assay type in all cases: binding
[1] = biological target: T1, CIB1 and αIIb interaction (CIB1-GST : F-αIIb peptide) (Homo sapiens, UniProt Q99828); assay: FP assay, 1536-well qHTS format (primary and confirmatory screen); conditions: for CONFIRMATORY SCREEN Confirm?: YES/NO call; for CONFIRMATORY SCREEN Curve Class: qHTS curve class; for CONFIRMATORY SCREEN Curve Class / Curve Class: negative sign = inhibitory curve; for CONFIRMATORY SCREEN Efficacy (%) / Efficacy (%): negative = inhibition
T1 construct: made in house; host or cells: BL-21 plus RIL cells (E. coli)
T1 sequence (Q99828 1-191): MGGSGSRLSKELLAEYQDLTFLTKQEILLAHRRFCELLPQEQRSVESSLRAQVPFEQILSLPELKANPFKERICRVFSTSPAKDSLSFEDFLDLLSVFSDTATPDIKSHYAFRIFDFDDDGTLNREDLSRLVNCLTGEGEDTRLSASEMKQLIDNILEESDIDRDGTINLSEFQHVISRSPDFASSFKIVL

[2] = biological target: T2, GST-CIB1 : F-scrambled peptide (Homo sapiens, UniProt Q99828); assay: FP scrambled-peptide counter screen, 1536-well format; conditions: scrambled-peptide counterscreen; for COUNTERSCREEN Confirm?: YES/NO call; for IC50: read-out: COUNTERSCREEN IC50; for COUNTERSCREEN Curve Class: qHTS curve class
T2 construct: made in house; host or cells: BL-21 plus RIL cells (E. coli)
T2 sequence (Q99828 1-191): T1 sequence (Q99828 1-191)

[3] = biological target: T3, CIB1 and αIIb interaction (GST-CIB1 : F-αIIb peptide) (Homo sapiens, UniProt Q99828); assay: FP assay, 384-well format (screen); set-up: 384-well SCREEN Efficacy (%): concentration or dose not given beside the values; conditions: F-αIIb peptide; for 384-well SCREEN Confirm?: YES/NO; for IC50: read-out: 384-well SCREEN IC50
T3 construct: made in house; host or cells: BL-21 plus RIL cells (E. coli)
T3 sequence (Q99828 1-191): T1 sequence (Q99828 1-191)

[4] = biological target: T2, GST-CIB1 : F-scrambled peptide; assay: FP scrambled-peptide counter screen, 384-well format; conditions: F-scrambled peptide; for 384-well COUNTERSCREEN Confirm?: *: Curve in opposite direction; for IC50: read-out: 384-well COUNTERSCREEN IC50
[5] = confirmatory screen, read-out: CONFIRMATORY SCREEN IC50
[6] = qHTS primary screen hits, Table S2
[7] = qHTS primary screen hits, Table S2, read-out: IC50
[8] = qHTS FP screen hits, Table S2, read-out: IC50
[9] = qHTS primary screen hits, Table S2, several classes where COUNT > 1

Row | Compound | CONFIRMATORY SCREEN Confirm? ([1]; confirmatory screen) | CONFIRMATORY SCREEN Curve Class ([1]; confirmatory screen) | CONFIRMATORY SCREEN Efficacy (%) ([1]; confirmatory screen) | IC50 [1, 5] | Efficacy (%) [1, 6] | IC50 [1, 7] | COUNTERSCREEN Efficacy (%) [2] | COUNTERSCREEN Confirm? [2] | IC50 [2] | 384-well SCREEN Efficacy (%) [3] | 384-well SCREEN Confirm? [3] | IC50 [3] | 384-well COUNTERSCREEN Efficacy (%) [4] | 384-well COUNTERSCREEN Confirm? [4] | IC50 [4] | Efficacy (%) ([1]; qHTS FP screen hits, Table S2) | IC50 [1, 8] | COUNTERSCREEN Curve Class [2] | Curve Class [1, 9] | also measured
1 | O=C(O)C(F)(F)F.O=c1c2ccccc2nc2sc(NS(=O)(=O)c3ccc4c(c3)CCC4)nn12 [NCGC00187579-01] | YES | -1.2 | -35% | 6.3 µM | -32% | 2.8 µM | 62% | YES | 35.5 µM | 43% | YES | 44.7 µM | 28% | YES | > 120 µM | – | – | – | – | Curve Class [1, 6]: -1.4
2 | O=C(O)C(F)(F)F.O=c1c2ccccc2nc2sc(Nc3cccc(N4CCN5CCCCC5C4)c3)nn12 (centres unmarked) [NCGC00189229-01] | YES | -1.2 | -50% | 7.9 µM | – | – | -28% | YES | 56.2 µM | 42% | YES | 120 µM | 42% | – | 17.8 µM | -20% | 2.5 µM | -2.4 | – | –
3 | CSC(Cc1ccc(Cl)cc1)C(=O)Nc1ccc(Cl)cc1C(=O)O.O=C(O)C(F)(F)F (centres unmarked) [NCGC00189231-01] | YES | -2.4 | -50% | 44.7 µM | -23% | 22.4 µM | 0% | YES | – | 31% | YES | 120 µM | 29% | YES | > 120 µM | – | – | 4 | -2.4 | –
4 | O=C(O)C(F)(F)F.OCc1ccc(-c2ccc3ncnc(NCc4cccs4)c3c2)o1 [NCGC00189276-01] | YES | -1.2 | -62% | – | -57% | 25.1 µM | 0% | YES | – | 72% | YES | 12.6 µM | 34% | YES | > 120 µM | – | – | 4 | -1.2 | –
5 | Cc1cc(=O)oc2cc(SC3=NS(=O)(=O)c4ccccc43)ccc12 [NCGC00189497-01] | YES | -1.4 | -39% | 20 µM | – | – | 115% | YES | 39.8 µM | 52% | YES | 44.7 µM | 34% | – | 10 µM | -45% | 39.8 µM | 3 | – | Curve Class ([1]; qHTS FP screen hits, Table S2, one class per curve where COUNT > 1): -2.2
6 | O=C(O)C(F)(F)F.O=C(O)c1ccc(-c2ccc3ncnc(NCc4nccs4)c3c2)o1 [NCGC00229620-01] | YES | -2.4 | -55% | 44.7 µM | – | – | -21% | YES | – | 40% | YES | 17.8 µM | 48% | – | 31.6 µM | -25% | 10 µM | 4 | – | –
